{
  "source": "patent US11654135B2",
  "about": "“Methods for treating colon cancer with compositions comprising amlexanox and immune checkpoint inhibitors” (MOONSHOT PHARMA LLC, priority 2017, dated 2023)",
  "tested_on": "MC38 tumor cells",
  "assay": "Example 2: MC38 subcutaneous tumor model with amlexanox and checkpoint inhibitors, tumor volume by caliper",
  "assay_type": "in vivo, C57BL/6 mice",
  "settings": "for Mean tumor volume: MC38 s.c., C57BL/6, i.p.: NMDI14 5, PTC124 20, amlexanox 20 (with antibodies) or 10 (alone) mg/kg QD, antibodies 10 mg/kg BIW, 3 weeks; for Mean % Inhibition, Tumor Volume MC38: (mean(C) − mean(T))/mean(C) * 100%, negative values indicate an increase in tumor volume",
  "method": "Animals and cell cultures were maintained as described in Example 1. C57BL/6 mice were inoculated subcutaneously at the right lower flank region with MC38 tumor cells (1×10^6) in 0.1 mL of PBS for tumor development. The treatments were started when the mean tumor size reaches approximately 50 mm^3. The date of tumor cell inoculation was denoted as day 0. All the compounds were administered i.p.\nAfter tumor cell inoculation, the animals were checked daily for morbidity and mortality as well as any effects of tumor growth and treatments on normal behavior such as mobility, visual estimation of food and water consumption, body weight gain/loss, eye/hair matting and any other abnormal effect. Tumor volumes were measured twice weekly at least in two dimensions using a caliper, and the volume expressed in mm3 using the formula: V=0.5 a×b2 where a and b are the long and short diameters of the tumor, respectively. Mean tumor volume for each treatment group over the course of the study is shown in Table 9, and the percent inhibition of tumor volume is shown in Table 10.",
  "data": [
    {"smiles": "CC(C)c1ccc2oc3nc(N)c(C(=O)O)cc3c(=O)c2c1", "note": "[amlexanox, 2-amino-7-isopropyl-5-oxo-5H-chromeno[2,3-b]pyridine-3-carboxylic acid]", "values": [
      {"measurement": "Mean tumor volume", "setting": "Day 7", "value": 17.22, "unit": "mm3"},
      {"measurement": "Mean tumor volume", "setting": "Day 11", "value": 145.47, "unit": "mm3"},
      {"measurement": "Mean tumor volume", "setting": "Day 14", "value": 286.64, "unit": "mm3"},
      {"measurement": "Mean tumor volume", "setting": "Day 18", "value": 982.03, "unit": "mm3"},
      {"measurement": "Mean tumor volume", "setting": "Day 21", "value": 1830.00, "unit": "mm3"},
      {"measurement": "Mean tumor volume", "setting": "Day 25", "value": 2816.94, "unit": "mm3"},
      {"measurement": "Mean tumor volume", "setting": "Day 26 (so in the source)", "value": 3301.20, "unit": "mm3"},
      {"measurement": "Mean % Inhibition, Tumor Volume MC38", "setting": "Study day 7 (Mar. 17, 2017)", "value": "−45.19", "unit": "%"},
      {"measurement": "Mean % Inhibition, Tumor Volume MC38", "setting": "Study day 11 (Mar. 21, 2017)", "value": "−29.51", "unit": "%"},
      {"measurement": "Mean % Inhibition, Tumor Volume MC38", "setting": "Study day 14 (Mar. 24, 2017)", "value": "−39.15", "unit": "%"},
      {"measurement": "Mean % Inhibition, Tumor Volume MC38", "setting": "Study day 18 (Mar. 28, 2017)", "value": "−44.97", "unit": "%"},
      {"measurement": "Mean % Inhibition, Tumor Volume MC38", "setting": "Study day 21 (Mar. 31, 2017)", "value": "−63.00", "unit": "%"},
      {"measurement": "Mean % Inhibition, Tumor Volume MC38", "setting": "Study day 25 (Apr. 4, 2017)", "value": "−42.11", "unit": "%"},
      {"measurement": "Mean % Inhibition, Tumor Volume MC38", "setting": "Study day 28 (Apr. 7, 2017)", "value": "−104.74", "unit": "%"}
    ]}
  ]
}
